Source: article PMC12662691, “DDX3X Promotes Rotavirus Infection and Serves as an Antiviral Target” (Transboundary and Emerging Diseases, 2025)

Tests used:
MYAS33 RV strain [1] = test: EC50 determination of anti-RV activity by RT-qPCR, MYAS33 strain; type: cell-based; conditions: Rotavirus, 0.1 MOI, 24 h, read-out: EC50 against RV infection
Procedure: (§1) Cells were seeded into 96-well plates, allowed to adhere, followed by drug inoculation in a concentration gradient along with RV infection at 0.1 MOI. After 24 h, cells were collected, total RNA was extracted, reverse transcription was performed, and RV was detected by RT-qPCR. The EC50 of the drug was calculated.

MYAS33 RV strain [2] = test: Antiviral efficacy screen, western blot of viral proteins; type: cell-based, Rotavirus; conditions: range of drug concentrations
Procedure: (a) Drugs were selected by gene dependent and network dependent strategy based on VP4 interacting proteins. (b) Cells were treated with a range of drug concentrations, and then, infected with MYAS33 RV strain. Subsequently, the cells were collected and subjected to western blot analysis to detect viral proteins.
Cells were collected, washed with PBS, and digested with trypsin. The cells were then collected in PBS into centrifuge tubes. After centrifugation, the supernatant was discarded. The cells was lysed, and the resulting lysate was transferred to a new centrifuge tube. 5 × SDS-PAGE sample buffer was added, and the samples were boiled in a water bath. Subsequently, SDS-PAGE was performed, and the proteins were transferred onto nitrocellulose membranes. The membranes were blocked with 5% skim milk at room temperature, washed three times with TBST, and incubated overnight at 4°C with primary antibodies. After washing three times with TBST, corresponding secondary antibodies were added and incubated for 1 h at room temperature. Following three additional washes with TBST, ECL reagent was prepared and applied to the membrane. Finally, the membrane was exposed in a chemiluminescence imaging system.

MSLH14 RV strain [3] = test: EC50 determination of anti-RV activity by RT-qPCR, MSLH14 strain; type: cell-based, Rotavirus
Procedure: as §1

SA11 RV strain = test: EC50 determination of anti-RV activity by RT-qPCR, SA11 strain; type: cell-based, Rotavirus
Procedure: as §1

MYAS33 RV strain [4] = test: RK-33 time course of RV infection, RT-qPCR; type: cell-based, Rotavirus
Procedure: (§2) Figure 7 RK-33 inhibits RV infection. (a, b) Cells were incubated with 10 μM RK-33 and infected with MYAS33 RV strain. The viral detection was conducted at 3, 6, 12, and 24 hpi by RT-qPCR detection, and at 12 and 24 hpi by TCID50. (c, d) EC50 of RK-33 against MSLH14 and SA11 strains was measured. (e) Flowchart of in vivo drug experiment. (f) Weight gain rate of mice. (g) Intestinal virus titer detection in mice. (h) H&E staining of intestine. (i–l) Cytokine detection of spleen. Statistical significance is determined by Student's test (^∗p < 0.05; ^∗∗p < 0.01; ^∗∗∗p < 0.001; ^∗∗∗∗p < 0.0001). HD, high dose; LD, low dose; ns, not significant. […] The name RK-33 is printed only in the plot legends of panels a and b.
Total RNA was extracted from collected samples using TRIzol reagent (Sangon Biotech) and subsequently reverse transcribed into cDNA using a premix reverse transcriptase (Vazyme). For qPCR analysis, a SYBR Green qPCR Mix kit (Promega) was utilized in combination with a CFX96 system. All procedures were carried out following the manufacturers' guidelines as described previously.

MYAS33 RV strain [5] = test: RK-33 viral titer by TCID50; type: cell-based, Rotavirus
Procedure: as §2

MSLH14 RV strain [6] = test: In vivo drug experiment in RV-challenged neonatal mice; conditions: neonatal Kunming mice
Procedure: Pregnant Kunming mice were individually housed and bred until delivery. Neonatal mice were raised for 1 week. Mice were inoculated with 10^4 TCID50 units of the MSLH14 RV strain via gavage. Drug administration was performed with 0.005 mg/g (low dose group) or 0.01 mg/g (high dose group). The drugs were dissolved in a solvent formulated as follows: 10% DMSO, 40% PEG300, 5% Tween-80, and 45% normal saline. Viral titers in the small intestine were determined using the TCID50 method. Spleens were collected for total RNA extraction, followed by reverse transcription and cytokine detection. For histopathological examination, tissues were fixed with 4% paraformaldehyde, paraffin embedded, sectioned into slices, and stained with hematoxylin and eosin following standard protocols as previously described.

[7] = MSLH14, spleen, RT-qPCR, vs untreated controls

Cc1[nH]c2ccccc2c1CCNC(=O)c1cccs1 [CK-636]
EC50 (MYAS33 RV strain [1]): 5.3 µM | Inhibitory effect against RV infection (antiviral efficacy screen) (MYAS33 RV strain [2]): exhibited inhibitory effects

Cc1[nH]c2ccccc2c1CCNC(=O)c1ccccc1F [CK-666]
EC50 (MYAS33 RV strain [1]): 2.85 µM | Inhibitory effect against RV infection (antiviral efficacy screen) (MYAS33 RV strain [2]): exhibited inhibitory effects

Clc1cccc(N2CCN(c3cnnc4c(Cl)cccc34)CC2)c1 [FiVe 1]
EC50 (MYAS33 RV strain [1]): 3.99 µM | Inhibitory effect against RV infection (antiviral efficacy screen) (MYAS33 RV strain [2]): exhibited inhibitory effects

COc1ccc(Cn2c3ncnc4c(ncn4Cc4ccc(OC)cc4)c-3nc2=O)cc1 [RK-33]
EC50 (MYAS33 RV strain [1]): 1.05 µM | Inhibition of MSLH14 infection (MSLH14 RV strain [3]): also inhibits SA11 and MSLH14 infections | EC50 (MSLH14 RV strain [3]; Rotavirus, 0.1 MOI, 24 h, RT-qPCR, read-out: EC50 against MSLH14): 0.91 µM | Inhibition of SA11 infection (SA11 RV strain): also inhibits SA11 and MSLH14 infections | EC50 (SA11 RV strain; Rotavirus, 0.1 MOI, 24 h, RT-qPCR, read-out: EC50 against SA11): 0.86 µM | Inhibitory effect against RV infection (antiviral efficacy screen) (MYAS33 RV strain [2]): exhibited inhibitory effects | Inhibitory effect on RV (RT-qPCR) (MYAS33 RV strain [4]; 10 μM RK-33, MYAS33, 3 hpi): no significant inhibitory effect | Inhibitory effect on RV (RT-qPCR) (MYAS33 RV strain [4]; 10 μM RK-33, MYAS33, 6 hpi): pronounced antiviral activity | Inhibitory effect on RV (RT-qPCR) (MYAS33 RV strain [4]; 10 μM RK-33, MYAS33, 12 hpi): pronounced antiviral activity | Inhibitory effect on RV (RT-qPCR) (MYAS33 RV strain [4]; 10 μM RK-33, MYAS33, 24 hpi): pronounced antiviral activity | Viral titer (TCID50) (MYAS33 RV strain [5]; 10 μM RK-33, MYAS33, 12 h): inhibited MYAS33 strain infection | Viral titer (TCID50) (MYAS33 RV strain [5]; 10 μM RK-33, MYAS33, 24 h): inhibited MYAS33 strain infection | Intestinal lesions (H&E histopathology) (MSLH14 RV strain [6]; MSLH14, 5 days postinfection): alleviated intestinal lesions | Spleen IFNG level (MSLH14 RV strain [6]; [7]): significantly reduced levels | Spleen IL-1B level (MSLH14 RV strain [6]; [7]): significantly reduced levels | Spleen IL-6 level (MSLH14 RV strain [6]; [7]): significantly reduced levels | Spleen TNFA level (MSLH14 RV strain [6]; [7]): significantly reduced levels | Recovery of body weight (weight gain rate) (MSLH14 RV strain [6]; MSLH14 by gavage, 0.005 mg/g (low dose) or 0.01 mg/g (high dose), vs untreated controls): faster recovery of body weight | Intestinal viral titer (TCID50) (MSLH14 RV strain [6]; MSLH14 by gavage, 0.005 or 0.01 mg/g, small intestine, vs untreated controls): significantly reduced

CC(COc1ccccc1Cc1ccccc1)N1CCCCC1 (centres unmarked) [benproperine phosphate]
EC50 (MYAS33 RV strain [1]): 4.69 µM | Inhibitory effect against RV infection (antiviral efficacy screen) (MYAS33 RV strain [2]): exhibited inhibitory effects

COCCCC/C(=N\OCCN)c1ccc(C(F)(F)F)cc1 [fluvoxamine]
EC50 (MYAS33 RV strain [1]): 14.8 µM | Inhibitory effect against RV infection (antiviral efficacy screen) (MYAS33 RV strain [2]): exhibited inhibitory effects
